Measurements published in patent publication US11243207B2, “Assessing and treating cancer” (Mayo Foundation for Medical Education and Research, priority 2018, dated 2022).

Assays:
HLF cells = test: Combination proliferation assay in HLF cells (Chou and Talalay); assay type: cell-based; details: in combination with SSI-4
Protocol: (§2) Cell lines were maintained in DMEM media supplemented with sodium pyruvate, HEPES, non-essential amino acids, 3% FBS and antibiotics. Cells were plated at 30,000 cells per well in 12-well plate and treated for 4-5 days at the indicated doses with SSI4 and sorafenib diluted in DMSO at 1:1000. Cell number was determined by using a Coulter Particle Counter.

LIV58 HCC PDTX = LIV58 HCC PDTX mouse model; assay type: in vivo
Protocol: (§1) Tissues were cut into 4×4×4 mm cubes and surgically implanted under anesthesia with 100 μl Matrigel into 4-6 week old athymic nude female mice. Tumors were measured 1 to 2 times per week using calipers and volumes calculated by […]*(L×W×H). Once tumors reached ˜100 mm3, either placebo or SSI-4 treatment was administered at 180, or 600 mg/kg in custom AIN76 animal chow by Research Diets, Inc. Based upon food consumption, the amount of SSI4 ingested was 20 mg/kg and 50 mg/kg, respectively. For the combination study, mice were administered either 10 mg/kg SSI4, 30 mg/kg sorafenib or both in Nutra-gel diet.
FFPE tissues were cut into 5 μm sections, deparaffinized, hydrated, antigen retrieved for 25 minutes at pH 6.0 and blocked for 5 minutes with Dako diluent. Immunostaining was done for 1 hour with either lamin A+C, SCD1, c-Myc, survivin, LDHA, ki67, and BIP primary antibodies. For detection, the Envision Dual Labeled Polymer kit (Dako) was used for 30 minutes for anti-species secondary antibodies and stained with DAB chromagen for 5 minutes. Then, lightly counterstained with Gill I hematoxylin for 30 seconds before dehydration and mounting. Images were obtained at 20× using an Aperio AT2 Scanscope. IHC scoring was done using an algorithm in the Imagescope software based upon signal intensity of weak (1+), moderate (2+) or strong staining (3+) with criteria of at least 20% positivity. H score was calculated based upon signal intensity (0-3) using the formula: [(1+%×1)+(2+%×2)+(3+%×3)].

[1] = system: SSI4 responsive HCC cells; test: Lipid assay, unsaturated fatty acids in HCC cells; assay type: cell-based; details: 1 μM, 48 hour treatment
Protocol: Cells were treated for 48 hours with 1 μM SSI4 and lipids from 8 million cells were extracted using the 1957 Folch Lipid Extraction method. Lipids were re-suspended in DMSO and analyzed using Cell Biolab's lipid quantitation assay kit. Borosilicate glass tubes and polypropylene tips and plates were used during the experiments. Samples were read at OD540 nm and were background corrected on a Spectramax M3 spectrophotometer.

[2] = Seven day oral toxicity test in Sprague Dawley rats; assay type: in vivo, rat
Protocol: Sprague dawley rats (6-8 weeks old M/F) were orally gavaged with SS1-4 at the indicated dose daily, for a duration of seven days. For each dose levels 3 male and 3 females were placed on study. Rats were clinically observed and weighed daily. On day 8 rats were euthanatized and blood was collected by cardiac puncture. Blood chemistry was measured by STAT Veterinary laboratory.

CX-003 CCA PDTX = CX-003 CCA PDTX mouse model (c-Myc negative); assay type: in vivo; details: 50 mg/kg oral daily
Protocol: as §1

[3] = system: human (CX-004T2 and HUCCT1) cholangiocarcinoma (CCA) cell lines; test: Proliferation of human CCA cell lines; assay type: cell-based; details: 0.1-1 μM, 5 day exposure
HCC cell lines = test: Proliferation assay in HCC cell lines; assay type: cell-based
Protocol: as §2

HLE HCC mouse model = test: HLE HCC mouse model, combination study; assay type: in vivo; details: 10 mg/kg SSI4, 30 mg/kg sorafenib or both
Protocol: as §1

[4] = system: Normal human hepatocytes (HH) cells; test: Proliferation assay in normal human hepatocytes; assay type: cell-based; details: 1 μM
468 kinases = test: Full matrix kinome scan, binding to 468 kinases; parameters: species or system human
Protocol: Kinome Scan was conducted by Lead Hunter Discovery Services

SCD1 = target: T1, SCD1 (Mus musculus, UniProt P13516); test: Inhibition of oleoyl CoA biosynthesis by mouse liver microsomes (13C18-stearoyl CoA conversion, LC/MS); assay type: biochemical
T1 construct: Each assay (100 μL) contained 50 μg of microsomes; from tissue; host or cells: mouse liver microsomes
T1 sequence (P13516 1-355): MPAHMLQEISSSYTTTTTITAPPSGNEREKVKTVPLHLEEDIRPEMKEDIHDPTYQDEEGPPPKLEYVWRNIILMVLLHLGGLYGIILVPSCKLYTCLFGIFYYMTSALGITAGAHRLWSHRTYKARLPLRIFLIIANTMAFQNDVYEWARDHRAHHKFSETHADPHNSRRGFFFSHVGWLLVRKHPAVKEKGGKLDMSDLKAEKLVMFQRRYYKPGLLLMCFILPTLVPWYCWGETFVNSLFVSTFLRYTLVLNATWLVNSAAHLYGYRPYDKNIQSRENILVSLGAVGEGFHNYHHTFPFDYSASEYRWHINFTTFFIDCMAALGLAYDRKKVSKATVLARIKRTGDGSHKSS
Protocol: Pharmacokinetic assessment was performed for SSI-4 administered to fasted male C57BL/6 mice either intravenously (IV) or by oral gavage (PO) in DMSO:PEG400:water (10:70:20) as a clear solution at 5 mg/mL (IV dosing), and 1.3 or 10 mg/mL (respectively for the PO dosing). Serum analysis was performed by LC-MS-MS. PK calculation settings were obtained using the Phoenix WinNonlin 6.3 program, using either the Noncompartmental model 201 (IV bolus input) or Noncompartmental model 200 (extravascular input). Microsomes were isolated from murine liver using Microsome Isolation Kit (BioVision). Each assay (100 μL) contained 50 μg of microsomes, 1 μL of DMSO (for no drug controls) or DMSO-solubilized SCD1 inhibitor, 1 mM reduced NADH, 60 µM coenzyme A, 1 mM ATP, 1 mM DTT, and 5 mM MgCl2 in 100 mM sodium phosphate buffer (pH 7.4). […] To quantify biotransformation of 13C18-stearoyl CoA to 13C18-oleoyl CoA for drug treatments relative to vehicle controls, supernatants were evaluated using the LC/MS2 acyl CoA quantitation method of […] et al. and adapting selected reaction monitoring (SRM) for isotope-labeled acyl CoAs. […] SRM signal areas for isotope-labeled acyl CoAs were measured relative to the heptadecanoyl CoA I.S. using XCalibur software, and percent enzyme inhibition determined by comparing 13C18-oleoyl CoA quantities between treatment and DMSO control assays. […]

[5] = system: cMyc, survivin, cyclin D1, cleaved PARP, BIP; test: Western blot analysis of HCC cell lines; assay type: cell-based
Protocol: Cells were collected via scraping and lysed in RIPA extraction buffer containing protease inhibitor cocktail and phosphatase inhibitor. Protein concentrations were measured by bicinchoninic acid (BCA) assay and 30 μg were loaded on 4-12% Bis-Tris/MES gels and then transferred to 0.2 μm Immobilon-P membranes. The membranes were hybridized overnight at 4° C. with the following antibodies: SCD1, PARP, survivin, c-Myc, BIP and β-actin. Secondary species-specific horseradish peroxidase-labeled antibodies were from Jackson Immunoresearch. Detection was performed using Supersignal chemiluminescence kit.

[6] = system: mouse (M1-1a and M6-1b) cholangiocarcinoma (CCA) cell lines; test: Proliferation of mouse CCA cell lines; assay type: cell-based; details: 0.1-1 μM, 5 day exposure
[7] = system: SSI-4 responsive HCC cells; test: Soft agar colony formation assay; assay type: cell-based
Protocol: Soft agar cultures were prepared by diluting 2× growth medium 1:1 in 1.5% Seaplaque GTG agarose with 1000 cells/plate in 6-well culture dishes. Colonies were stained with Giemsa after 3 weeks and colonies larger than 150 μm were counted using Image J software.

[8] = Single dose pharmacokinetics in fasted male C57BL/6 mice (PO or IV); assay type: in vivo, mouse
Protocol: Pharmacokinetic assessment was performed for SSI-4 administered to fasted male C57BL/6 mice either intravenously (IV) or by oral gavage (PO) in DMSO:PEG400:water (10:70:20) as a clear solution at 5 mg/mL (IV dosing), and 1.3 or 10 mg/mL (respectively for the PO dosing). Serum analysis was performed by LC-MS-MS. PK calculation settings were obtained using the Phoenix WinNonlin 6.3 program, using either the Noncompartmental model 201 (IV bolus input) or Noncompartmental model 200 (extravascular input). Microsomes were isolated from murine liver using Microsome Isolation Kit (BioVision). Each assay (100 μL) contained 50 μg of microsomes, 1 μL of DMSO (for no drug controls) or DMSO-solubilized SCD1 inhibitor, 1 mM reduced NADH, 60 µM coenzyme A, 1 mM ATP, 1 mM DTT, and 5 mM MgCl2 in 100 mM sodium phosphate buffer (pH 7.4). […] To quantify biotransformation of 13C18-stearoyl CoA to 13C18-oleoyl CoA for drug treatments relative to vehicle controls, supernatants were evaluated using the LC/MS2 acyl CoA quantitation method of Magnes et al. and adapting selected reaction monitoring (SRM) for isotope-labeled acyl CoAs. […] SRM signal areas for isotope-labeled acyl CoAs were measured relative to the heptadecanoyl CoA I.S. using XCalibur software, and percent enzyme inhibition determined by comparing 13C18-oleoyl CoA quantities between treatment and DMSO control assays. […]

PAX148 HCC PDTX = PAX148 HCC PDTX mouse model; assay type: in vivo; details: daily SSI-4 20-50 mg/kg oral, high LDHA model
Protocol: as §1

For CNC(=O)c1cc(Oc2ccc(NC(=O)Nc3ccc(Cl)c(C(F)(F)F)c3)c(F)c2)ccn1 [Regorafenib], the “synergy by Chou and Talalay method” value (HLF cells) was “exhibited synergy”.
In the case of CNC(=O)c1ccnc(NC(=O)N2CCC(Oc3ccccc3Cl)CC2)c1 [SSI-4, 2-{[4-(2-Chlorophenoxy)piperidine-1-carbonyl]amino}-N-methylpyridine-4-carboxamide], the “BIP, biomarker of ER stress (IHC)” value (LIV58 HCC PDTX; LIV58 tumors) is reported as “upregulated”, the “Ki-67, survivin and cMyc (IHC)” value (LIV58 HCC PDTX; LIV58 tumors) is reported as “attenuated” and the “antitumor response (tumor volume)” value (LIV58 HCC PDTX; daily SSI-4 20-50 mg/kg oral, low LDHA model) is reported as ~30%. For the same compound, the “levels of unsaturated fatty acids” value [1] was “decreased”, the blood chemistries ([2]; day 8) was “in normal range” and the toxicity ([2]; male or female rats, daily oral for seven days) was “Little to no toxicity”. The weight loss ([2]; males, 300 mg/kg) was 6%, the “antitumor response (tumor volume)” value (CX-003 CCA PDTX) was “no response” and the cell growth [3] was “growth inhibition”. For the same compound, the “proliferation response in HCC cells silenced for cMyc with shRNA” value (HCC cell lines; 1 uM SSI-4, c-Myc 1657 shRNA) was “blunted response”, the IC50 (HCC cell lines; other (non-responsive) HCC cell lines) was ≥ 10 µM and the “in vivo tumor response over time” value (HLE HCC mouse model) was “escape over time on therapy”. For the same compound, the growth inhibition [4] was “not growth inhibited”, the “kinases found to bind (of 468)” value (468 kinases; SSI-4 at 10 nM) was “none” and the “kinases found to bind (of 468)” value (468 kinases; SSI-4 at 100 nM, kinase bound is CDKL2) was 1. For the same compound, the IC50 (SCD1) was 0.0019 µM, the “ER stress (BIP)” value [5] was “inducing” and the “Wnt regulated genes (cMyc, survivin and cyclin D1) protein” value [5] was “down-regulated”. For the same compound, the “apoptosis (cleaved PARP)” value [5] was “inducing apoptosis”, the cell growth [6] was “growth inhibition” and the “colony formation in soft agar” value [7] was “decreased colony formation”. For the same compound, the half-life ([8]; male, C57BL/6, mouse, serum, following a single oral dose) was 3 to 4 h, the oral bioavailability ([8]; single dose, mice) was “excellent oral bioavailability” and the “antitumor response (tumor volume)” value (PAX148 HCC PDTX) was “highly sensitive”.
In the case of CNC(=O)c1cc(Oc2ccc(NC(=O)Nc3ccc(Cl)c(C(F)(F)F)c3)cc2)ccn1 [sorafenib, reference compound], the IC50 (HCC cell lines; all cell lines tested) is reported as 1.7 to 6.4 µM and the “in vivo tumor response over time” value (HLE HCC mouse model) is reported as “escape over time on therapy”.
